Experimental data taken from patent publication US20050026994A1, “Use of 2, 4diamino-3-hydroxycarboxylic acid derivatives as proteasome inhibitors” (priority 2000, published 2005).

Target: T1, purified human placenta 20S proteasome (Homo sapiens, UniProt P28074)
T1 construct: purified human placenta 20S proteasome; tissue Diabetes Forschungsinstitut, Düsseldorf, Germany; host or cells: human placenta
Assay: Inhibition of the chymotrypsin-like activity of the 20S proteasome (Suc-LLVY-AMC hydrolysis, fluorescence)
Assay type: biochemical
Details: substrate Suc-LLVY-AMC 80 μM, 60 min preincubation at room temperature, incubation 3-24 h at 37° C.
Experimental: It is based on the hydrolysis of the fluorogenic peptide Suc-LLVY-AMC (Succinyl-leucine-leucine-valine-tyrosine-7-amino-4-methylcoumarin), which is cleaved exclusively at the Y-AMC bond by the 20S proteasome. Hydrolysis of this peptide is accompanied by an increase in fluorescence intensity (λex355 nm, λem460 nm) due to release of the […] that accompanies diffusion apart of the hydrolysis product Suc-LLVY.
2 μl of a 1 mM solution of a test compound in DMSO (dimethylsulfoxide, 20 μM final concentration in the well) are preincubated for 60 min at room temperature in black 96-well microtiter plates together with a mixture of 1 μl purified human placenta 20S proteasome (Diabetes Forschungsinstitut, Düsseldorf, Germany; about 100 ng proteasome, depending on the proteasome preparation) and 47 μl buffer-Ca (5 mM CaCl2, 20 mM Trs/HCl (Tris(hydroxymethyl)-amino-methane hydrochloride) pH 8.0). 3 pd of a 2.67 mM solution of Suc-LLVY-AMC (Bachem, Switzerland) in DMSO (80 μM final concentration in the well) and 47 μl buffer-Ca are mixed and added. The resulting mixture is incubated for 3-24 h at 37° C. If desired, proteolysis of the substrate can be stopped by addition of 50 μl stop solution (100 mM monochloroacetic acid, 130 mM NaOH, 100 mM acetic acid, pH=4.3). The fluorescence is monitored with a FLUOROSKAN ASCENT™ microtiter plate reader.
To each measure series two control experiments have to be carried out • 1.) 0% value: 2 μl DMSO are used in the above described assay instead of 2 μl of a 1 mM solution of a test compound in DMSO and 48 μl buffer-Ca instead of a mixture of 47 μl buffer-Ca and 1 μl purified proteasome. • 2.) 100% value: in the above described assay 2 μl DMSO are used instead of 2 μl of a 1 mM solution of the test compound in DMSO. Calculation [formula]
The IC50 value is defined as that concentration of a compound at which the remaining activity is 50%.

Row | IC50 [nM] | SMILES
1 | 1000 | COc1ccc(CN[C@@H](C(=O)N[C@H](C(=O)NCc2ccc(OC)cc2O)C(C)C)[C@@H](O)[C@H](Cc2ccccc2)NC(=O)[C@@H](NC(=O)OCC2CCCCC2)C(C)(C)C)cc1 [Example 15, {(S)-1-[(1S,2S,3R)-1-Benzyl-2-hydroxy-3-[(S)-1-(2-hydroxy-4-methoxy-benzylcarbamoyl)-2-methyl-propylcarbamoyl]-3-(4-methoxy-benzylamino)-propylcarbamoyl]-2,2-dimethyl-propyl}-carbamic acid cyclohexylmethyl ester]
2 | 9000 | COc1ccc(CNC(C(=O)NC(C(=O)NCc2ccc(OC)cc2O)C(C)C)C(O)C(Cc2ccccc2)NC(=O)CNC(=O)OCc2ccccc2)cc1 (centres unmarked) [Example 7, {[1-Benzyl-2-hydroxy-3-[1-(2-hydroxy-4-methoxy-benzylcarbamoyl)-2-methyl-propylcarbamoyl]-3-(4-methoxy-benzylamino)-propylcarbamoyl]-methyl}-carbamic acid benzyl ester]
3 | 26000 | COc1ccc(CNC(C(=O)NC(C(=O)NCc2ccc(OC)cc2O)C(C)C)C(O)C(Cc2ccccc2)NC(=O)C(NC(=O)OC(C)(C)C)C(C)(C)C)cc1 (centres unmarked) [Example 3, {1-[1-Benzyl-2-hydroxy-3-[1-(2-hydroxy-4-methoxy-benzylcarbamoyl)-2-methyl-propylcarbamoyl]-3-(4-methoxy-benzylamino)-propylcarbamoyl]-2,2-dimethyl-propyl}-carbamic acid tert-butyl ester]
4 | 100 | COc1ccc(CNC(C(=O)NC(C(=O)NCc2ccc(OC)cc2O)C(C)C)C(O)C(Cc2ccccc2)NC(=O)C(NC(=O)Cc2cccc3ccccc23)C(C)(C)C)cc1 (centres unmarked) [Example 10, 4-[3,3-Dimethyl-2-(2-naphthalen-1-yl-acetylamino)-butyrylamino]-3-hydroxy-2-(4-methoxy-benzylamino)-5-phenyl-pentanoic acid [1-(2-hydroxy-4-methoxy-benzyl-carbamoyl)-2-methyl-propyl]-amide]
5 | 500 | COc1ccc(CNC(C(=O)NC(C(=O)NCc2ccc(OC)cc2O)C(C)C)C(O)C(Cc2ccccc2)NC(=O)C(NC(=O)OCc2cccc(C)c2)C(C)(C)C)cc1 (centres unmarked) [Example 11, {1-[1-Benzyl-2-hydroxy-3-[1-(2-hydroxy-4-methoxy-benzylcarbamoyl)-2-methyl-propylcarbamoyl]-3-(4-methoxy-benzylamino)-propylcarbamoyl]-2,2-dimethyl-propyl}-carbamic acid 3-methylbenzyl ester]
6 | 600 | COc1ccc(CNC(C(=O)NC(C(=O)NCc2ccc(OC)cc2O)C(C)C)C(O)C(Cc2ccccc2)NC(=O)C(NC(=O)OCc2cccc(N)c2)C(C)(C)C)cc1 (centres unmarked) [Example 13, {1-[1-Benzyl-2-hydroxy-3-[1-(2-hydroxy-4-methoxy-benzylcarbamoyl)-2-meth-propylcarbamoyl]-3-(4-methoxy-benzylamino)-propylcarbamoyl]-2,2-dimethyl-propyl}-carbamic acid 3-amino-benzyl ester]
7 | 5200 | COc1ccc(CNC(C(=O)NC(C(=O)NCc2ccc(OC)cc2O)C(C)C)C(O)C(Cc2ccccc2)NC(=O)C(NC(=O)OCc2ccc3ccccc3c2)C(C)(C)C)cc1 (centres unmarked) [Example 5, {1-[1-Benzyl-2-hydroxy-3-[1-(2-hydroxy-4-methoxy-benzylcarbamoyl)-2-methyl-propylcarbamoyl]-3-(4-methoxy-benzylamino)-propylcarbamoyl]-2,2-dimethyl-propyl}-carbamic acid naphthalen-2-ylmethyl ester]
8 | 400 | COC(=O)CCC(NC(=O)C(NCc1ccc(OC)cc1)C(O)C(Cc1ccccc1)NC(=O)C(NC(=O)OCc1ccccc1)C(C)C)C(=O)NCc1ccc(OC)cc1O (centres unmarked) [Example 2, 4-[4-(2-Benzyloxycarbonylamino-3-methyl-butyrylamino)-3-hydroxy-2-(4-methoxy-benzylamino)-5-phenyl-pentanoylamino]-4-(2-hydroxy-4-methoxy-benzyl-carbomoyl)-butyric acid methyl ester]
9 | 1100 | COc1ccc(CNC(C(=O)NC(C(=O)NCc2ccc(OC)cc2O)C(C)C)C(O)C(Cc2ccccc2)NC(=O)C(NC(=O)OCc2cc(C)cc(C)c2)C(C)(C)C)cc1 (centres unmarked) [Example 14, {1-[1-Benzyl-2-hydroxy-3-[1-(2-hydroxy-4-methoxy-benzyl-carbamoyl)-2-methyl-propylcarbamoyl]-3-(4-methoxy-benzylamino)-propylcarbamoyl]-2,2-dimethyl-propyl}-carbamic acid 3,5-dimethyl-benzyl ester]
10 | 2000 | COc1ccc(CNC(C(=O)NC(C(=O)NCc2ccc(OC)cc2O)C(C)C)C(O)C(Cc2ccccc2)NC(=O)C(NC(=O)OCc2cccc3ccccc23)C(C)(C)C)cc1 (centres unmarked) [Example 4, {1-[1-Benzyl-2-hydroxy-3-[1-(2-hydroxy-4-methoxy-benzyl-carbamoyl)-2-methyl-propylcarbamoyl]-3-(4-methoxy-benzylamino)-propylcarbamoyl]-2,2-dimethyl-propyl}-carbamic acid naphthalen-1-ylmethyl ester]
11 | 2200 | COc1ccc(CNC(C(=O)NC(C(=O)NCc2ccc(OC)cc2O)C(C)C)C(O)C(Cc2ccccc2)NC(=O)C(NC(=O)OCc2ccncc2)C(C)(C)C)cc1 (centres unmarked) [Example 6, {1-[1-Benzyl-2-hydroxy-3-[1-(2-hydroxy-4-methoxy-benzylcarbamoyl)-2-methyl-propylcarbamoyl]-3-(4-methoxy-benzylamino)-propylcarbamoyl]-2,2-dimethyl-propyl}-carbamic acid pyridin-4-ylmethyl ester]
12 | 3300 | COc1ccc(CNC(C(=O)NC(C(=O)NCc2ccc(OC)cc2O)C(C)C)C(O)C(Cc2ccccc2)NC(=O)C(NC(=O)OCc2ccccc2)C(C)C)cc1 (centres unmarked) [Example 8, {1-[1-Benzyl-2-hydroxy-3-[1-(2-hydroxy-4-methoxy-benzylcarbamoyl)-2-methyl-propylcarbamoyl]-3-(4-methoxy-benzylamino)-propylcarbamoyl]-2-methyl-propyl}-carbamic acid benzyl ester]
13 | 600 | COc1ccc(CNC(C(=O)NC(C(=O)NCc2ccc(OC)cc2O)C(C)C)C(O)C(Cc2ccccc2)NC(=O)C(NC(=O)CCc2cccc(N)c2)C(C)(C)C)cc1 (centres unmarked) [Example 12, 4-{2-[3-(3-Amino-phenyl)-propionylamino]-3,3-dimethyl-butyrylamino}-3-hydroxy-2-(4-methoxy-benzylamino)-5-phenyl-pentanoic acid [1-(2-hydroxy-4-methoxy-benzylcarbamoyl)-2-methyl-propyl]-amide]

Row | SMILES | IC50 [nM]
14 | COc1ccc(CN[C@@H](C(=O)N[C@H](C(=O)NCc2ccc(OC)cc2O)C(C)C)[C@@H](O)[C@H](Cc2ccccc2)NC(=O)[C@@H](NC(=O)OCc2ccccc2)C(C)(C)C)cc1 [Example 1] | 900
